Earlier results in patent publication US9011938B2, “Methods and formulations for treating chronic liver disease” (priority 2008, dated 2015).
Structures can show the parent of a compound that is named as a salt.

Key:
[1] = system: rats with fatty liver induced by a high-fat diet
[2] = system: tumor necrosis factor-alpha (TNF-α); conditions: subjects suffering from alcoholic hepatitis
[3] = system: mice induced with an immunological liver injury
[4] = system: HCV internal ribosome entry site (IRES); conditions: in vitro, dose-dependant, not competitive binding

**Q.** With COc1ccc2cc3[n+](cc2c1OC)CCc1cc2c(cc1-3)OCO2 [berberine hydrochloride] as the compound, how does the hepatic fat degeneration [1] read?
**A.** The hepatic fat degeneration was “attenuates”.

**Q.** Which TNF-α activity [2] does the source give for N[C@@H](CCC(=O)N[C@@H](CS)C(=O)NCC(=O)O)C(=O)O [glutathione, Glutathione] here?
**A.** The TNF-α activity was “inhibits”.

**Q.** Which “increase in TNF-alpha, lipopolysaccharide binding protein, and CD14 mRNA expression in mouse liver” value [3] does the source give for C[C@@]12C[C@@]3(O)O[C@@H](O1)[C@]1(COC(=O)c4ccccc4)[C@H]3C[C@@]12O[C@@H]1O[C@H](CO)[C@@H](O)[C@H](O)[C@H]1O [paeoniflorin] here?
**A.** Its value is “significantly decreased”.

**Q.** And the “serum ALT activities” value [3]?
**A.** The value was “significantly decrease”.

**Q.** For cyanocobalamin [vitamin B12], which “HCV IRES-dependent translation of a reporter gene” value [4] is on record?
**A.** Its value is “inhibit”.
